Patent US10590140B2, “Tetrahydropyrimidodiazepine and dihydropyridodiazepine compounds for treating pain and pain related conditions” (ESTEVE PHARMACEUTICALS, S.A., priority 2016, dated 2020)

Target: human α2δ-1 subunit of Cav2.2 calcium channel (Homo sapiens (Human), UniProt P54289)
Test: Binding assay to human α2δ-1 subunit of Cav2.2 calcium channel ([3H]-Gabapentin)
Conditions: binding to α2δ-1, [3H]-Gabapentin; read-out: Ki (nM) α2δ-1
In short: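 [3H]-gabapentin binding, 60 min at 27° C; nonspecific binding defined with 10 μM pregabalin. Terminated by filtration on PEI-presoaked GF/C filters, ice-cold 50 mM Tris-HCl pH 7.4 washes, then scintillation counting.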

human α2δ-1 subunit of Cav2.2 calcium channel, sequence (P54289 25-1103): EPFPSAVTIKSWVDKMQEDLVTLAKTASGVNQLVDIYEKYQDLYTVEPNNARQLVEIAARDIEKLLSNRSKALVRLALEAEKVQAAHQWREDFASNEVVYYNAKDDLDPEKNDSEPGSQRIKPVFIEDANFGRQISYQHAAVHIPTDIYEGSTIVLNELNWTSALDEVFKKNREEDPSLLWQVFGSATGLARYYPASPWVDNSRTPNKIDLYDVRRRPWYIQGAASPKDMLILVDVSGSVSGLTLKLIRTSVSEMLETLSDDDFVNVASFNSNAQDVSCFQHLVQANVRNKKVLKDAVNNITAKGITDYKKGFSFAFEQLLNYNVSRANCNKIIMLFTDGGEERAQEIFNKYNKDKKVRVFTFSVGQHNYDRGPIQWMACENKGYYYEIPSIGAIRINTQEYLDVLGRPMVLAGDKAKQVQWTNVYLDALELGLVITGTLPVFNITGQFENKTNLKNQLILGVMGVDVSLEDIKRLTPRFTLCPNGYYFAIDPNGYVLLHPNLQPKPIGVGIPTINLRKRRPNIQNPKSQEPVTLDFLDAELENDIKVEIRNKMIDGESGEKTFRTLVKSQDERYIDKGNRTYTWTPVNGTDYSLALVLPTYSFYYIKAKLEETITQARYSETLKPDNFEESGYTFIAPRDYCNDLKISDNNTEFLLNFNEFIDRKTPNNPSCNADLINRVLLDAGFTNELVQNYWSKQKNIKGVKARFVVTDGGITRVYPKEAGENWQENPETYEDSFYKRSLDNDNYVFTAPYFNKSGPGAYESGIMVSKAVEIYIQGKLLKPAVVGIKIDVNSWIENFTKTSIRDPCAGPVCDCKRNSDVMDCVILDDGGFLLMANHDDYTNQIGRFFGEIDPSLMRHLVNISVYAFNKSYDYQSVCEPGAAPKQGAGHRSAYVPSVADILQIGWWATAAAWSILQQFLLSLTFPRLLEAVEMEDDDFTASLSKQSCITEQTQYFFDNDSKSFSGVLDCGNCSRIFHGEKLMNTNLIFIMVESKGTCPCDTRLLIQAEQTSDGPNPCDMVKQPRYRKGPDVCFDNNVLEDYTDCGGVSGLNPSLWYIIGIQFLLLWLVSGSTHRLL

Structure (SMILES) | Ki [nM]
CNCC(Oc1ccccc1CN1CCN(C)c2ncncc2C1=O)c1ccccc1 (centres unmarked) [Example 432, 9-methyl-6-(2-(2-(methylamino)-1-phenylethoxy)benzyl)-6,7,8,9-tetrahydro-5H-pyrimido[4,5-e][1,4]diazepin-5-one] | > 3000
CCNc1ncc2c(n1)N(C)CCN(c1cccc(OCCN3CCCCC3)c1)C2=O [Example 439, 2-(ethylamino)-9-methyl-6-(3-(2-(piperidin-1-yl)ethoxy)phenyl)-6,7,8,9-tetrahydro-5H-pyrimido[4,5-e][1,4]diazepin-5-one] | 500 to 3000
CNCC(Oc1ccccc1N1CCN(C)c2ncncc2C1=O)c1ccccc1 (centres unmarked) [Example 362, 9-methyl-6-(2-(2-(methylamino)-1-phenylethoxy)phenyl)-6,7,8,9-tetrahydro-5H-pyrimido[4,5-e][1,4]diazepin-5-one] | > 3000
CNCC[C@H](Oc1ccc(CN2CCN(C)c3c(Cl)cncc3C2=O)cc1)c1cccs1 [Example 400, (S)-9-chloro-1-methyl-4-(4-(3-(methylamino)-1-(thiophen-2-yl)propoxy)benzyl)-1,2,3,4-tetrahydro-5H-pyrido[4,3-e][1,4]diazepin-5-one] | 500 to 3000
CCNc1ncc2c(n1)N(C)CCN(c1cccc(C3CCNCC3)c1)C2=O [Example 235, 2-(Ethylamino)-9-methyl-6-(3-(piperidin-4-yl)phenyl)-6,7,8,9-tetrahydro-5H-pyrimido[4,5-e][1,4]diazepin-5-one] | 100 to 500
CSc1ncc2c(n1)N(C)CCN(c1cccc(CO[C@@H](CCN(C)C(=O)OC(C)(C)C)c3cccs3)c1)C2=O [Example 17, tert-butyl (S)-methyl(3-((3-(9-methyl-2-(methylthio)-5-oxo-5,7,8,9-tetrahydro-6H-pyrimido[4,5-e][1,4]diazepin-6-yl)benzyl)oxy)-3-(thiophen-2-yl)propyl) carbamate] | > 3000
CCNc1cc2c(cn1)C(=O)N(c1cccc(COC(CCNC)c3cccs3)c1)CCN2C (centres unmarked) [Example 228, 8-(ethylamino)-1-methyl-4-(3-((3-(methylamino)-1-(thiophen-2-yl)propoxy)methyl)phenyl)-1,2,3,4-tetrahydro-5H-pyrido[4,3-e][1,4]diazepin-5-one] | 100 to 500
CN(CC[C@@H](OCc1cccc(N2CCN(C)c3nc(N(C)C)ncc3C2=O)c1)c1ccccc1)C(=O)OC(C)(C)C [Example 131, tert-butyl (R)-(3-((3-(2-(dimethylamino)-9-methyl-5-oxo-5,7,8,9-tetrahydro-6H-pyrimido[4,5-e][1,4]diazepin-6-yl)benzyl)oxy)-3-phenylpropyl)(methyl) carbamate] | > 3000
CCNc1ncc2c(n1)N(C)CCN(Cc1ccccc1OC(CNC)c1ccccc1)C2=O (centres unmarked) [Example 410, 2-(ethylamino)-9-methyl-6-(2-(2-(methylamino)-1-phenylethoxy)benzyl)-6,7,8,9-tetrahydro-5H-pyrimido[4,5-e][1,4]diazepin-5-one] | > 3000
CN(CCC(Oc1cccc(N2CCN(C)c3cc(Cl)ncc3C2=O)c1)c1cccs1)C(=O)OCC[Si](C)(C)C (centres unmarked) [Example 297, 2-(trimethylsilyl)ethyl (3-(3-(8-chloro-1-methyl-5-oxo-1,2,3,5-tetrahydro-4H-pyrido[4,3-e][1,4]diazepin-4-yl)phenoxy)-3-(thiophen-2-yl)propyl)(methyl) carbamate] | > 3000
CCNc1ncc2c(n1)N(C)CCN(c1cccc(OC3CCN(C(=O)OC(C)(C)C)C3)c1)C2=O (centres unmarked) [Example 95, tert-butyl 3-(3-(2-(ethylamino)-9-methyl-5-oxo-5,7,8,9-tetrahydro-6H-pyrimido[4,5-e][1,4]diazepin-6-yl)phenoxy)pyrrolidine-1-carboxylate] | > 3000
CN(CC[C@@H](OCc1cccc(N2CCN(C)c3ncncc3C2=O)c1)c1ccccc1)C(=O)OC(C)(C)C [Example 145, tert-Butyl (R)-methyl(3-((3-(9-methyl-5-oxo-5,7,8,9-tetrahydro-6H-pyrimido[4,5-e][1,4]diazepin-6-yl)benzyl)oxy)-3-phenylpropyl)carbamate] | > 3000
CN(CC[C@H](Oc1cccc(N2CCN(C)c3cc(Cl)ncc3C2=O)c1)c1cccs1)C(=O)OCC[Si](C)(C)C [Example 298, 2-(trimethylsilyl)ethyl (S)-(3-(3-(8-chloro-1-methyl-5-oxo-1,2,3,5-tetrahydro-4H-pyrido[4,3-e][1,4]diazepin-4-yl)phenoxy)-3-(thiophen-2-yl)propyl)(methyl) carbamate] | > 3000
CCNc1ncc2c(n1)N(C)CCN(c1cccc(COC(CCN(C)C(=O)OC(C)(C)C)C(C)C)c1)C2=O (centres unmarked) [Example 126, tert-butyl (3-((3-(2-(ethylamino)-9-methyl-5-oxo-5,7,8,9-tetrahydro-6H-pyrimido[4,5-e][1,4]diazepin-6-yl)benzyl)oxy)-4-methylpentyl)(methyl) carbamate] | > 3000
COc1cccc(N2CCN(C)c3nc(SC)ncc3C2=O)c1 [Example 32, 6-(3-methoxyphenyl)-9-methyl-2-(methylthio)-6,7,8,9-tetrahydro-5H-pyrimido[4,5-e][1,4]diazepin-5-one] | > 3000

Results, then the molecule that gave them:

Ki [nM] | Structure (SMILES)
100 to 500 | CCNc1ncc2c(n1)N(C)CCN(c1cccc(-n3cc(CCN(C)CCc4ccccc4)nn3)c1)C2=O [Example 249, 2-(ethylamino)-9-methyl-6-(3-(4-(2-(methyl(phenethyl)amino)ethyl)-1H-1,2,3-triazol-1-yl)phenyl)-6,7,8,9-tetrahydro-5H-pyrimido[4,5-e][1,4]diazepin-5-one]
> 3000 | Cc1nnc(-c2cccc(N3CCN(C)c4nc(N(C)Cc5ccccc5)ncc4C3=O)c2)o1 [Example 104, 2-(benzyl(methyl)amino)-9-methyl-6-(3-(5-methyl-1,3,4-oxadiazol-2-yl)phenyl)-6,7,8,9-tetrahydro-5H-pyrimido[4,5-e][1,4]diazepin-5-one]
> 3000 | CCNc1ncc2c(n1)N(C)CCN(c1cccc(CCOS(=O)(=O)c3ccc(C)cc3)c1)C2=O [Example 274, 3-(2-(Ethylamino)-9-methyl-5-oxo-5,7,8,9-tetrahydro-6H-pyrimido[4,5-e][1,4]diazepin-6-yl)phenethyl 4-methylbenzenesulfonate]
> 3000 | CCNc1ncc2c(n1)N(C)CCN(c1cccc(Br)c1)C2=O [Example 112, 6-(3-bromophenyl)-2-(ethylamino)-9-methyl-6,7,8,9-tetrahydro-5H-pyrimido[4,5-e][1,4]diazepin-5-one]
500 to 3000 | CCNc1ncc2c(n1)N(C)CCN(c1cccc(OC(CCNCCF)c3cccs3)c1)C2=O (centres unmarked) [Example 220, 2-(ethylamino)-6-(3-(3-((2-fluoroethyl)amino)-1-(thiophen-2-yl)propoxy)phenyl)-9-methyl-6,7,8,9-tetrahydro-5H-pyrimido[4,5-e][1,4]diazepin-5-one]
100 to 500 | CCNc1ncc2c(n1)N(C)CCN(c1cccc(COC(CCNCCF)c3cccs3)c1)C2=O (centres unmarked) [Example 345, 2-(ethylamino)-6-(3-((3-((2-fluoroethyl)amino)-1-(thiophen-2-yl)propoxy)methyl)phenyl)-9-methyl-6,7,8,9-tetrahydro-5H-pyrimido[4,5-e][1,4]diazepin-5-one]
500 to 3000 | CCNc1ncc2c(n1)N(C)CCN(c1cccc(-n3cc(CCN(C)Cc4ccccc4)nn3)c1)C2=O [Example 247, 6-(3-(4-(2-(benzyl(methyl)amino)ethyl)-1H-1,2,3-triazol-1-yl)phenyl)-2-(ethylamino)-9-methyl-6,7,8,9-tetrahydro-5H-pyrimido[4,5-e][1,4]diazepin-5-one]
> 3000 | CCNc1ncc2c(n1)N(C)CCN(c1cccc(OCCN(C)C(=O)OC(C)(C)C)c1)C2=O [Example 90, tert-butyl (2-(3-(2-(ethylamino)-9-methyl-5-oxo-5,7,8,9-tetrahydro-6H-pyrimido[4,5-e][1,4]diazepin-6-yl)phenoxy)ethyl) (methyl)carbamate]
100 to 500 | CCNc1ncc2c(n1)N(C)CCN(Cc1cccc(OC(CCNC)c3ccccc3)c1)C2=O (centres unmarked) [Example 407, 2-(ethylamino)-9-methyl-6-(3-(3-(methylamino)-1-phenylpropoxy)benzyl)-6,7,8,9-tetrahydro-5H-pyrimido[4,5-e][1,4]diazepin-5-one]
> 3000 | CCNc1ncc2c(n1)N(C)CCN(c1cccc(OC(CCN(C)C(=O)OC(C)(C)C)c3cccs3)c1)C2=O (centres unmarked) [Example 80, tert-butyl (3-(3-(2-(ethylamino)-9-methyl-5-oxo-5,7,8,9-tetrahydro-6H-pyrimido[4,5-e][1,4]diazepin-6-yl)phenoxy)-3-(thiophen-2-yl)propyl)(methyl) carbamate]
> 3000 | CCNc1ncc2c(n1)N(C)CCN(c1cccc(-n3cc(CCN(C)C(=O)OC(C)(C)C)nn3)c1)C2=O [Example 120, tert-butyl (2-(1-(3-(2-(ethylamino)-9-methyl-5-oxo-5,7,8,9-tetrahydro-6H-pyrimido[4,5-e][1,4]diazepin-6-yl)phenyl)-1H-1,2,3-triazol-4-yl)ethyl)(methyl) carbamate]
> 3000 | CCNc1ncc2c(n1)N(C)CCN(c1cccc(COC3(c4ccccc4)CCN(C(=O)OC(C)(C)C)CC3)c1)C2=O [Example 96, tert-butyl 4-((3-(2-(ethylamino)-9-methyl-5-oxo-5,7,8,9-tetrahydro-6H-pyrimido[4,5-e][1,4]diazepin-6-yl)benzyl)oxy)-4-phenylpiperidine-1-carboxylate]
> 3000 | CCNc1ncc2c(n1)N(C)CCN(c1cccc(CO[C@@H](CCN(C)C(=O)OC(C)(C)C)c3cccs3)c1)C2=O [Example 85, tert-butyl (S)-(3-((3-(2-(ethylamino)-9-methyl-5-oxo-5,7,8,9-tetrahydro-6H-pyrimido[4,5-e][1,4]diazepin-6-yl)benzyl)oxy)-3-(thiophen-2-yl)propyl)(methyl) carbamate]
> 3000 | CCNc1ncc2c(n1)N(C)CCN(c1cccc(OC(CCN(C)C(=O)OC(C)(C)C)c3ccccc3)c1)C2=O (centres unmarked) [Example 69, tert-Butyl (3-(3-(2-(ethylamino)-9-methyl-5-oxo-5,7,8,9-tetrahydro-6H-pyrimido[4,5-e][1,4]diazepin-6-yl)phenoxy)-3-phenylpropyl)(methyl)carbamate]
